Read-outs that look alike come from different tables or passages of the source.
Columns and labels:
Multiple-dose = format: in vivo, human (healthy subjects); conditions: for AUC(0-t) / Cmax / half-life at 7 days: human, plasma, oral; for AUC(0-t): AUC0–24, steady state (day 7); for Cmax: steady state (day 7); for half-life at 7 days: t1/2, steady state; for Cmin: steady state (day 7, 24-hour period)
[1] = format: in vivo, human (healthy subjects); conditions: for AUC(0-t) / AUC(0-inf) / Cmax / half-life: human, plasma, oral; for AUC(0-t): AUCt
[2] = cited from earlier work
[3] = format: in vivo; conditions: human, not told, po
CYP2D6 = conditions: in vitro; cited from earlier work
[4] = cited from earlier work; remark: listed apart in the source
cytochrome P450 (CYP) 3A = conditions: in vitro; cited from earlier work
[5] = 6 and 12 mg twice daily, IR formulation, background methotrexate; cited from earlier work
[6] = cited from earlier work; remark: listed apart in the source
[7] = 6 mg, 6 mg twice-daily IR, fasting, n = 11, mean ± SD
[8] = 12 mg, 12 mg twice-daily IR, fasting, n = 11, mean ± SD
[9] = 15 mg, 15 mg once-daily ER, fasting, n = 12, mean ± SD
[10] = 15 mg, 15 mg once-daily ER, nonfasting, n = 12, mean ± SD
[11] = 30 mg, 30 mg once-daily ER, fasting, n = 11, mean ± SD
[12] = 30 mg, 30 mg once-daily ER, nonfasting, n = 12, mean ± SD
[13] = 12 mg, single 12 mg IR, fasting, n = 11, mean ± SD
[14] = 15 mg, single 15 mg ER, fasting, n = 11, mean ± SD
[15] = 24 mg, single 24 mg IR, fasting, n = 12, mean ± SD
[16] = 30 mg, single 30 mg ER after high-fat breakfast, n = 12, mean ± SD
[17] = 30 mg, single 30 mg ER, fasting, n = 12, mean ± SD

difference of central values for Cmax and Cmin, ER once daily vs IR twice daily (Multiple-dose; 15 and 30 mg once daily vs 6 and 12 mg twice daily, fasting, steady state): ≤ 13%
AUC(0-t) (Multiple-dose; [7]): 288 ± 63.5 ng·h/mL
Cmax (Multiple-dose; [7]): 33.9 ± 8.8 ng/mL
half-life at 7 days (Multiple-dose; [7]): 24.5 ± 18.1 h
AUC(0-t) (Multiple-dose; [8]): 534 ± 97.8 ng·h/mL
Cmax (Multiple-dose; [8]): 73.9 ± 14.2 ng/mL
half-life at 7 days (Multiple-dose; [8]): 11.5 ± 9.2 h
AUC(0-t) (Multiple-dose; [9]): 279 ± 71.4 ng·h/mL
AUC(0-t) (Multiple-dose; [10]): 317 ± 68.1 ng·h/mL
Cmax (Multiple-dose; [9]): 31.9 ± 11.2 ng/mL
Cmax (Multiple-dose; [10]): 36 ± 8.8 ng/mL
half-life at 7 days (Multiple-dose; [9]): 16.9 ± 12 h
half-life at 7 days (Multiple-dose; [10]): 15.1 ± 10.1 h
AUC(0-t) (Multiple-dose; [11]): 525 ± 123 ng·h/mL
AUC(0-t) (Multiple-dose; [12]): 582 ± 172 ng·h/mL
Cmax (Multiple-dose; [11]): 68.2 ± 20.5 ng/mL
Cmax (Multiple-dose; [12]): 79.5 ± 31.8 ng/mL
half-life at 7 days (Multiple-dose; [11]): 22.9 ± 21.1 h
steady state achieved by day (Multiple-dose; once-daily dosing of ER formulation, predose concentrations): ≤ 4 days
Cmin (Multiple-dose; 6 mg twice-daily IR, fasting, n = 11, mean ± SD): 2.7 ± 0.6
Cmin (Multiple-dose; 12 mg twice-daily IR, fasting, n = 11, mean ± SD): 3.8 ± 2.2
Cmin (Multiple-dose; 15 mg once-daily ER, fasting, n = 12, mean ± SD): 3.1 ± 1.1
Cmin (Multiple-dose; 15 mg once-daily ER, nonfasting, n = 12, mean ± SD): 2.8 ± 1.2
Cmin (Multiple-dose; 30 mg once-daily ER, fasting, n = 11, mean ± SD): 3.8 ± 1.6
Cmin (Multiple-dose; 30 mg once-daily ER, nonfasting, n = 12, mean ± SD): 4.6 ± 1.8
increase in AUC and Cmax after a high-fat meal compared with fasting ([1]; ER formulation): ~20%
AUC(0-t) [1, 13]: 231 ± 34.5 ng·h/mL
AUC(0-inf) [1, 13]: 234 ± 34.6 ng·h/mL
Cmax [1, 13]: 64.6 ± 10.3 ng/mL
half-life ([1]; 12 mg, t1/2, single 12 mg IR, fasting, n = 11, mean ± SD): 18.3 ± 13.3 h
AUC(0-t) [1, 14]: 227 ± 60 ng·h/mL
AUC(0-inf) [1, 14]: 242 ± 63.6 ng·h/mL
half-life ([1]; 15 mg, t1/2, single 15 mg ER, fasting, n = 11, mean ± SD): 21.9 ± 23.1 h
AUC(0-inf) [1, 15]: 524 ± 133 ng·h/mL
Cmax [1, 15]: 176 ± 65.6 ng/mL
half-life ([1]; 24 mg, t1/2, single 24 mg IR, fasting, n = 12, mean ± SD): 15.3 ± 13.6 h
AUC(0-t) [1, 16]: 564 ± 145 ng·h/mL
AUC(0-t) [1, 17]: 477 ± 130 ng·h/mL
AUC(0-inf) [1, 17]: 491 ± 133 ng·h/mL
Cmax [1, 16]: 76.8 ± 29.6 ng/mL
Cmax [1, 17]: 63.7 ± 21.1 ng/mL
half-life ([1]; 30 mg, t1/2, single 30 mg ER after high-fat breakfast, n = 12, mean ± SD): 15.9 ± 11 h
half-life ([1]; 30 mg, t1/2, single 30 mg ER, fasting, n = 12, mean ± SD): 18.1 ± 14.5 h
bioavailability [3]: 70 to 80%
SMILES: CC[C@@H]1CN(C(=O)NCC(F)(F)F)C[C@@H]1c1cnc2cnc3[nH]ccc3n12 [Upadacitinib]
dose eliminated unchanged in urine ([2]; IR formulation): approximately 20%
time to maximum plasma concentration ([2]; IR formulation): ≤ 2 h
accumulation in plasma ([2]; twice-daily dosing of the IR formulation): no significant accumulation
contribution of CYP2D6 to metabolism (CYP2D6): minor contribution
effect of CYP2D6 metabolic phenotype on apparent oral clearance [4]: no effect
residual error in upadacitinib concentrations [4]: 31%
intersubject variability of apparent central volume of distribution ([4]; healthy subjects): 14%
intersubject variability of apparent oral clearance ([4]; healthy subjects): 16%
higher AUC compared with subjects with normal renal function ([4]; mild renal impairment, estimated): 16%
higher AUC compared with subjects with normal renal function ([4]; moderate renal impairment, estimated): 32%
apparent oral clearance lower in RA patients compared with healthy subjects ([4]; population pharmacokinetic analyses, estimated): 24%
intersubject variability of apparent central volume of distribution ([4]; subjects with RA): 27%
intersubject variability of apparent oral clearance ([4]; subjects with RA): 26%
substrate of CYP3A (cytochrome P450 (CYP) 3A): nonsensitive substrate
efficacy in subjects with RA [5]: maximal efficacy
decrease in upadacitinib AUC with rifampin ([6]; CYP inducer rifampin): 60%
decrease of Cmax by food ([6]; IR formulation): approximately 20%
impact of food on AUC ([6]; IR formulation): no impact
increase in upadacitinib AUC with ketoconazole ([6]; strong CYP3A inhibitor ketoconazole): 75%

— article PMC6585649 (Clinical Pharmacology in Drug Development, 2018)
